Data: patent publication US5922554A, “Inhibition of cellular uptake of cholesterol” (The Regents of the University of California, priority 1996, dated 1999)

Experiments:
fibroblast monolayers [1] = assay: Cellular cholesterol mass determined enzymatically; type: cell-based, human; details: 2 mM NEM, 120 min, 37° C.; control 4.1 ± 0.3
Procedure: In most experiments, LDL was labeled directly with ^3 H-FC by exchange from albumin-agarose covalent complex essentially as previously described (Miida et al., Biochemistry, 29: 10469-10474 (1990)). Briefly, recrystallized human serum albumin (Sigma Chemical Co, St. Louis, Mo., USA) was covalently linked to CNBr-activated Sepharose 6B (Pharmacia). 1,2-^3 H-FC in ethanol (0.1-1.0 mCi, 10-20 μl/ml gel suspension) was added and the mixture incubated with gentle stirring for 60 mm at 37° C. The labeled suspension was centrifuged (500× g, 1 min) and the gel equilibrated (60 min, 37° C.) with unlabeled LDL prepared as described above. Finally the gel was removed by centrifugation, leaving labeled LDL in the supernatant. LDL total and FC mass was determined fluorimetrically with cholesterol oxidase (Heider & Boyett, J. Lipid Res. 19: 514-518 (1978)) in the presence or absence of cholesterol esterase. EC mass was obtained by difference. LDL ^3 H-radioactivity was measured by liquid scintillation spectrometry. FC specific activity in these experiments was 3×10^4 to 5×10^5 cpm μg^-1.
The FC and EC mass of cell monolayers was determined before and after incubation with lipoprotein as described above. Portions of the chloroform phase were analyzed for total and free cholesterol. […]
^a Increase in cellular cholesterol mass determined enzymatically ove

fibroblast monolayers [2] = assay: Influx/uptake of ^3 H-FC (free cholesterol) from labeled LDL (or plasma, HDL) into normal fibroblast monolayers; type: cell-based, human

CCN1C(=O)C=CC1=O [N-ethylmaleimide]
Δ total cholesterol (fibroblast monolayers [1]): 0.4 ± 0.2 μg dish^-1 | inhibition of LDL-FC pathway (summary, words) (fibroblast monolayers [2]): inhibited | effect on cellular uptake of LDL FC in first 10-15 min of incubation (fibroblast monolayers [2]; 30 min preincubation, FIG. 8): no effect | IC (maximal) (fibroblast monolayers [2]; Homo sapiens, Fibroblast, read-out: concentration for maximal inhibition): 2000 to 5000 µM | FC Influx (fibroblast monolayers [2]; LDL-FC 60.2 μg ml^-1, 60 min, 37° C., 30 min preequilibration with inhibitor at: Na-azide 1 mM, NH4-vanadate 1 mM, NEM 2 mM, KNO3 50 mM, progesterone 30 μM, forskolin 30 μM, IBMX 100 μM, chloroquine 20 μM): 0.40 ± 0.01 µg | inhibition of uptake of free cholesterol from LDLs (summary) (fibroblast monolayers [2]; NEM or KNO3, Example 1, FIG. 8): > 80% | effect on LDL FC uptake (fibroblast monolayers [2]; Table 3 conditions): blocks selective uptake of FC from LDL | time to complete inhibition by NEM (fibroblast monolayers [2]; cells prelabeled to equilibrium (24 h) with ^3 H-FC): ≤ 30 min | FC Influx, % (PBS only = 100.0) (fibroblast monolayers [2]; same concentrations and conditions as Table 3 FC influx, 60 min): 30.0% | inhibition of uptake of ^3 H-FC from LDL on further incubation (fibroblast monolayers [2]; time course, 30 min preincubation, after 10-15 min, FIG. 8 (5 mM NEM)): > 80%
